Results published in PubChem BioAssay AID2060504 (Molecular Pharmacology Branch, DTP, NCI, 2025).
Several values for one entry are separate records, joined by “and”; a condition that tells them apart may be missing. Equal values may be shown once.

Test system: 636577-100-R-J1-PDC complex spheroid viability
Assay: Anticancer human tumor 636577-100-R-J1-PDC patient-derived endometrial adenocarcinoma cell line growth inhibition [GQUAD]
Settings: for viability, T/C: stronger effect = lower value
Excerpt: DNA G-quadruplex Stabilizer Agents in Combinations in Complex Spheroids
A high-throughput screen of multi-cell type tumor spheroids was designed to identify active combinations of DNA G-quadruplex stabilizer agents and targeted small molecules. Complex spheroids include a stromal component modeled by human endothelial cells (HUVEC) and fibroblasts modeled by human mesenchymal stem cells (MSCs). The concentration ranges selected for each drug and investigational agent were based upon clinically achievable concentrations if the clinical Cmax of the agent was known.
Compounds. The drugs and investigational agents: pidnarulex (CX-5461; NSC782164), APTO-253 (NSC789042), BRACO-19 (NSC847499), peposertib (NSC802822), ceralasertib (NSC780249), elimusertib (NSC800525), camonsertib (NSC841442), AZD-1390 (NSC803789), olaparib (NSC753686), talazoparib (NSC767125), ART-558 (NSC835418), sotorasib (NSC818433), MRTX-1133 (NSC836407), SN-38 (NSC673596), topotecan (NSC609699), etoposide (NSC141540), doxorubicin (NSC123127), gemcitabine (NSC613327), 5-fluorouracil (NSC19893), paclitaxel (NSC125973), vemurafenib (NSC761431), panobinostat (NSC761190), R-306465 (JNJ-16241199; NSC773264), adavosertib (NSC754352), TP-3654 (NSC805149), carboplatin (NSC241240), KSQ-4279 (NSC840948), and staurosporine (NSC755774) were obtained from the National Cancer Institute (NCI) Developmental Therapeutics Program Chemical Repository (34). The FDA-approved anticancer drug set is available from the NCI Developmental Therapeutics Program. […] The stock solutions were prepared in dimethyl sulfoxide (DMSO, Sigma-Aldrich, St. Louis, MO, cat. D2650) at 800-fold the tested concentration and stored at -70 degrees C prior to their use. All drugs and investigational agents were tested over a range starting from a high concentration at or near the clinical Cmax and decreasing in half-log increments. If the clinical Cmax for an agent had not been determined, the highest concentration tested was 10 microM.
2.3 Cell Culture. All cells were maintained in an incubator at 37 degrees C and 5% CO2 with 95% humidity. The PDC lines were cultured according to standard operating procedures established by the NCI PDMR. All PDCs were thawed and cultured in Matrigel-coated flasks prepared with a working solution of 1X Ham's F-12 nutrient mix, without supplementation (Invitrogen, cat. 11765054), 100 U/mL penicillin-streptomycin (Invitrogen, cat. 15140122), and 2.5% Matrigel (Corning Inc., cat. 354248) for the first three passages. The 857933-349-R-J2-PDC line was cultured in 6C/Colon 1B media, which includes advanced DMEM/F-12 (Thermo Fisher Scientific, cat. 12634028), 10 mM HEPES (Thermo Fisher Scientific, cat. 15630080), 1X GlutaMAX supplement (Thermo Fisher Scientific, cat. 35050061), 0.1 mg/mL primocin (InvivoGen, cat. ant-pm-2), 10% defined fetal bovine serum, heat inactivated (HyClone Laboratories Inc., cat. SH30070.03HI), 50% L-WRN conditioned media (ATCC, cat. CRL-3276), 1.25 mM N-Acetyl-L-cysteine (Sigma-Aldrich, cat. A9165), 10 mM nicotinamide (Sigma-Aldrich, cat. N0636), 1X B-27 supplement (Thermo Fisher Scientific, cat. 17504044), 1X N-2 supplement (Thermo Fisher Scientific, cat. 17502048), 10 microM Y-27632 dihydrochloride (Tocris Bioscience, cat. 1254), and 50 ng/mL human EGF recombinant protein (Thermo Fisher Scientific, cat. PHG0311). The 485176-168-R4-J1-PDC line was cultured in Panc media, which includes all 6C/Colon 1B media components plus 100 ng/mL human FGF-10 (Thermo Fisher Scientific, cat. 100-26), 500 nM SB-431542 (Selleckchem, cat. S1067), and gastrin (Tocris, cat. 3006).
[…]

[1] = curve of first compound, second compound 0.0316 µM
[2] = curve of first compound, second compound 0.1 µM
[3] = curve of first compound, second compound 0.316 µM
[4] = curve of first compound, second compound 1 µM
[5] = curve of first compound, second compound 3.16 µM
[6] = curve of first compound, second compound 10 µM
[7] = second compound 0.0316 µM, first compound 0.0316 µM
[8] = second compound 0.0316 µM, first compound 0.1 µM
[9] = second compound 0.0316 µM, first compound 0.316 µM
[10] = second compound 0.0316 µM, first compound 1 µM
[11] = second compound 0.0316 µM, first compound 3.16 µM
[12] = second compound 0.0316 µM, first compound 10 µM
[13] = second compound 0.1 µM, first compound 0.0316 µM
[14] = second compound 0.1 µM, first compound 0.1 µM
[15] = second compound 0.1 µM, first compound 0.316 µM
[16] = second compound 0.1 µM, first compound 1 µM
[17] = second compound 0.1 µM, first compound 3.16 µM
[18] = second compound 0.1 µM, first compound 10 µM
[19] = second compound 0.316 µM, first compound 0.0316 µM
[20] = second compound 0.316 µM, first compound 0.1 µM
[21] = second compound 0.316 µM, first compound 0.316 µM
[22] = second compound 0.316 µM, first compound 1 µM
[23] = second compound 0.316 µM, first compound 3.16 µM
[24] = second compound 0.316 µM, first compound 10 µM
[25] = second compound 1 µM, first compound 0.0316 µM
[26] = second compound 1 µM, first compound 0.1 µM
[27] = second compound 1 µM, first compound 0.316 µM
[28] = second compound 1 µM, first compound 1 µM
[29] = second compound 1 µM, first compound 3.16 µM
[30] = second compound 1 µM, first compound 10 µM
[31] = second compound 3.16 µM, first compound 0.0316 µM
[32] = second compound 3.16 µM, first compound 0.1 µM
[33] = second compound 3.16 µM, first compound 0.316 µM
[34] = second compound 3.16 µM, first compound 1 µM
[35] = second compound 3.16 µM, first compound 3.16 µM
[36] = second compound 3.16 µM, first compound 10 µM
[37] = second compound 10 µM, first compound 0.0316 µM
[38] = second compound 10 µM, first compound 0.1 µM
[39] = second compound 10 µM, first compound 0.316 µM
[40] = second compound 10 µM, first compound 1 µM
[41] = second compound 10 µM, first compound 3.16 µM
[42] = second compound 10 µM, first compound 10 µM
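Further: viability read after seven days of drug exposure.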
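Wherever viability, T/C is given: luminescence signal used as a proxy for viable cells; 100% = DMSO vehicle control wells.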

`COc1ccc([C@@H](O)c2cc(-c3ncnc4cc(N5CCOCC5)ccc34)c(F)cc2Cl)nn1` + CN(C)c1ccc(Nc2c3ccc(NC(=O)CCN4CCCC4)cc3nc3cc(NC(=O)CCN4CCCC4)ccc23)cc1 showed an IC50 [1] of 1560 nM, an IC50 [2] of 486 nM and an IC50 [3] of 466 nM. It also gave an IC50 [4] of 153 nM, an IC50 [5] of under 31.6 nM and an IC50 [6] of under 31.6 nM. For the same molecule, the viability, T/C [7] was 93.7%, the viability, T/C [8] was 98% and the viability, T/C [9] was 88.5%. For the same molecule, the viability, T/C [10] was 55.3%, the viability, T/C [11] was 39.1% and the viability, T/C [12] was 20.1%. For the same molecule, the viability, T/C [13] was 102%, the viability, T/C [14] was 63.5% and the viability, T/C [15] was 58.3%. It also gave a viability, T/C [16] of 44%, a viability, T/C [17] of 37% and a viability, T/C [18] of 19.8%. It also gave a viability, T/C [19] of 77.5%, a viability, T/C [20] of 77.2% and a viability, T/C [21] of 61%. It also gave a viability, T/C [22] of 27.6%, a viability, T/C [23] of 24% and a viability, T/C [24] of 12.1%. For the same molecule, the viability, T/C [25] was 73.2%, the viability, T/C [26] was 47.4% and the viability, T/C [27] was 50.6%. For the same molecule, the viability, T/C [28] was 25.5%, the viability, T/C [29] was 17.4% and the viability, T/C [30] was 11.7%. For the same molecule, the viability, T/C [31] was 35.3%, the viability, T/C [32] was 40.5% and the viability, T/C [33] was 24%. It also gave a viability, T/C [34] of 14.5%, a viability, T/C [35] of 9.36% and a viability, T/C [36] of 7.69%. The viability, T/C [37] was 5.37%, the viability, T/C [38] was 4.81% and the viability, T/C [39] was 3.18%. For the same molecule, the viability, T/C [40] was 2.32%, the viability, T/C [41] was 1.95% and the viability, T/C [42] was 0.58%.

`Cc1cccc(N(C)C(=O)C2C(O)CCN2c2nc(C)cc(C(F)(F)F)c2C#N)c1` (stereo unspecified) was tested, and the viability, T/C (compound 0.0316 µM) was 55.9% and 99.9% and 91.4%, the viability, T/C (compound 0.1 µM) was 87% and 96.7% and 33.3% and the viability, T/C (compound 0.316 µM) was 95.6% and 94.5% and 96%. For the same molecule, the viability, T/C (compound 1 µM) was 75.2% and 81.8% and 94.4%, the viability, T/C (compound 3.16 µM) was 76% and 84.7% and 55.7% and the viability, T/C (compound 10 µM) was 74.4% and 87.5% and 49.5%. The IC50 (curve of compound) was > 10000 nM and 9350 nM.

In the case of `C#Cc1c(F)ccc2cc(O)cc(-c3ncc4c(N5CC6CCC(C5)N6)nc(OCC56CCCN5CC(F)C6)nc4c3F)c12` (stereo unspecified) + Cc1cnc(CNC(=O)c2c(=O)c3ccc(N4CCCN(C)CC4)nc3n3c2sc2ccccc23)cn1, the IC50 [1] is reported as under 31.6 nM, the IC50 [2] is reported as under 31.6 nM and the IC50 [3] is reported as under 31.6 nM. It also gave an IC50 [4] of under 31.6 nM, an IC50 [5] of under 31.6 nM and an IC50 [6] of under 31.6 nM. For the same molecule, the viability, T/C [7] was 48.3%, the viability, T/C [8] was 45.1% and the viability, T/C [9] was 46%. It also gave a viability, T/C [10] of 30.9%, a viability, T/C [11] of 38% and a viability, T/C [12] of 28.6%. It also gave a viability, T/C [13] of 31.6%, a viability, T/C [14] of 26.9% and a viability, T/C [15] of 25.8%. The viability, T/C [16] was 21.6%, the viability, T/C [17] was 22.5% and the viability, T/C [18] was 20%. For the same molecule, the viability, T/C [19] was 22.2%, the viability, T/C [20] was 22.6% and the viability, T/C [21] was 25%. The viability, T/C [22] was 18.9%, the viability, T/C [23] was 19.8% and the viability, T/C [24] was 16%. The viability, T/C [25] was 18.4%, the viability, T/C [26] was 19% and the viability, T/C [27] was 21%. For the same molecule, the viability, T/C [28] was 18.1%, the viability, T/C [29] was 15.7% and the viability, T/C [30] was 13.3%. It also gave a viability, T/C [31] of 17.1%, a viability, T/C [32] of 20.5% and a viability, T/C [33] of 19.5%. For the same molecule, the viability, T/C [34] was 17.4%, the viability, T/C [35] was 17% and the viability, T/C [36] was 16.5%. It also gave a viability, T/C [37] of 19.3%, a viability, T/C [38] of 16.1% and a viability, T/C [39] of 20.3%. For the same molecule, the viability, T/C [40] was 17.5%, the viability, T/C [41] was 19.7% and the viability, T/C [42] was 16.2%.
